From patent US20230220021A1, “CYCLIC PEPTIDE INHIBITORS OF PSD-95 AND USES THEREOF” (University of Copenhagen, priority 2020, published 2023) come the findings set out here.

Each structure is given as a SMILES string. Where a SMILES comes first, the peptide text is derived from it. [ ]: non-standard residue; d: D form.

T1 sequence (P78352 160-246 limits assumed): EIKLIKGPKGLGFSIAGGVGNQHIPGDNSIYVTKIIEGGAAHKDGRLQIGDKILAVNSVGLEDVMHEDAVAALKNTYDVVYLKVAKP

One test concerns the target T1, PSD-95-PDZ2 (Homo sapiens, UniProt P78352).
T1 construct: 7xHis (N); made in house; host or cells: Escherichia coli B21 pLys (for the mutants, 'as previously described')
Briefly: Fluorescence polarization (FP) competition assay against cyclic nNOS TAMRA probe. The following applies: FP competition, cyclic nNOS TAMRA probe; mean of triplicates; N.B. = not binding; read-out: Ki. The format is binding. For orientation: Polarisation of emitted light reports the rotation of a fluorescent probe.
Broadly, the Ki is the dissociation constant of the complex between target and ligand, obtained from inhibition or displacement. In the case of `CC[C@H](C)[C@@H]1NC(=O)[C@H]([C@@H](C)O)NC(=O)[C@H](CCCCN)NC(=O)[C@@H]2CCCN2C(=O)[C@H]([C@@H](C)O)NC(=O)CNC(=O)[C@H](CC(=O)O)NC(=O)CNC(=O)[C@H]([C@@H](C)O)NC(=O)[C@H](Cc2ccccc2)NC(=O)[C@H](CCC(=O)O)NC(=O)[C@H]([C@@H](C)O)NC(=O)[C@H](CCC(=O)O)NC(=O)[C@H](CC(C)C)NC(=O)[C@H](Cc2c[nH]cn2)NC(=O)[C@H]([C@@H](C)O)NC(=O)[C@H](CCC(N)=O)NC(=O)CNC(=O)[C@H]2CCCN2C(=O)[C@H](CCC(N)=O)NC(=O)[C@H]([C@@H](C)O)NC(=O)[C@H](C(C)C)NC(=O)[C@H](CCCNC(=N)N)NC1=O` [compound 53] (cyclo(THLETEFTGDGTPKTIRVTQ[dP]GQ)), the inhibition constant (Ki) stood at 11.5 µM.
Regarding `CC[C@H](C)[C@@H]1NC(=O)[C@H]([C@@H](C)O)NC(=O)[C@H](CCCCN)NC(=O)[C@@H]2CCCN2C(=O)CNC(=O)[C@H](CC(=O)O)NC(=O)CNC(=O)[C@H]([C@@H](C)O)NC(=O)[C@H](Cc2ccccc2)NC(=O)[C@H]([C@@H](C)O)NC(=O)[C@H]([C@@H](C)O)NC(=O)[C@H](CCC(=O)O)NC(=O)[C@H](CC(C)C)NC(=O)[C@H](Cc2c[nH]cn2)NC(=O)[C@H]([C@@H](C)O)NC(=O)[C@H](CCC(N)=O)NC(=O)CNC(=O)[C@H]2CCCN2C(=O)[C@H](CCC(N)=O)NC(=O)[C@H]([C@@H](C)O)NC(=O)[C@H](C(C)C)NC(=O)[C@H](CCCNC(=N)N)NC1=O` [compound 77] (cyclo(THLETTFTGDGPKTIRVTQ[dP]GQ)), the inhibition constant Ki turned out to be 1.43 µM.
As for `CC[C@H](C)[C@@H]1NC(=O)[C@H]([C@@H](C)O)NC(=O)[C@H](CCCCN)NC(=O)[C@@H]2CCCN2C(=O)[C@H]([C@@H](C)O)NC(=O)CNC(=O)[C@H](CC(=O)O)NC(=O)CNC(=O)[C@H]([C@@H](C)O)NC(=O)[C@H](Cc2ccccc2)NC(=O)[C@H]([C@@H](C)O)NC(=O)[C@H]([C@@H](C)O)NC(=O)[C@H](CCC(=O)O)NC(=O)[C@H](CC(C)C)NC(=O)[C@H](Cc2c[nH]cn2)NC(=O)[C@H]([C@@H](C)O)N(C)C(=O)[C@H](CCC(N)=O)NC(=O)CNC(=O)[C@H]2CCCN2C(=O)[C@H](CCC(N)=O)NC(=O)[C@H]([C@@H](C)O)NC(=O)[C@H](C(C)C)NC(=O)[C@H](CCCNC(=N)N)NC1=O` [compound 84], the Ki is 4.8 µM.
As to `CC[C@H](C)[C@@H]1NC(=O)[C@H]([C@@H](C)O)NC(=O)[C@H](CCCCN)NC(=O)[C@@H]2CCCN2C(=O)[C@H]([C@@H](C)O)NC(=O)CNC(=O)[C@H](CC(=O)O)NC(=O)CNC(=O)[C@H]([C@@H](C)O)NC(=O)[C@H](Cc2ccccc2)NC(=O)[C@H]([C@@H](C)O)N(C)C(=O)[C@H]([C@@H](C)O)NC(=O)[C@H](CCC(=O)O)NC(=O)[C@H](CC(C)C)NC(=O)[C@H](Cc2c[nH]cn2)NC(=O)[C@H]([C@@H](C)O)NC(=O)[C@H](CCC(N)=O)NC(=O)CNC(=O)[C@H]2CCCN2C(=O)[C@H](CCC(N)=O)NC(=O)[C@H]([C@@H](C)O)NC(=O)[C@H](C(C)C)NC(=O)[C@H](CCCNC(=N)N)NC1=O` [compound 89], the inhibition constant Ki worked out at 1.47 µM.
On the same count and under the same terms, under `CC[C@H](C)[C@@H]1NC(=O)[C@H]([C@@H](C)O)NC(=O)[C@H](CCCCN)NC(=O)[C@@H]2CCCN2C(=O)[C@H]([C@@H](C)O)NC(=O)CNC(=O)[C@H](CC(=O)O)NC(=O)CN(C)C(=O)[C@H]([C@@H](C)O)NC(=O)[C@H](Cc2ccccc2)NC(=O)[C@H]([C@@H](C)O)NC(=O)[C@H]([C@@H](C)O)NC(=O)[C@H](CCC(=O)O)NC(=O)[C@H](CC(C)C)NC(=O)[C@H](Cc2c[nH]cn2)NC(=O)[C@H]([C@@H](C)O)NC(=O)[C@H](CCC(N)=O)NC(=O)CNC(=O)[C@H]2CCCN2C(=O)[C@H](CCC(N)=O)NC(=O)[C@H]([C@@H](C)O)NC(=O)[C@H](C(C)C)NC(=O)[C@H](CCCNC(=N)N)NC1=O` [compound 92] stands 6.19 µM; under `CC[C@H](C)[C@@H]1NC(=O)[C@H]([C@@H](C)O)NC(=O)[C@H](CCCCN)N(C)C(=O)[C@@H]2CCCN2C(=O)[C@H]([C@@H](C)O)NC(=O)CNC(=O)[C@H](CC(=O)O)NC(=O)CNC(=O)[C@H]([C@@H](C)O)NC(=O)[C@H](Cc2ccccc2)NC(=O)[C@H]([C@@H](C)O)NC(=O)[C@H]([C@@H](C)O)NC(=O)[C@H](CCC(=O)O)NC(=O)[C@H](CC(C)C)NC(=O)[C@H](Cc2c[nH]cn2)NC(=O)[C@H]([C@@H](C)O)NC(=O)[C@H](CCC(N)=O)NC(=O)CNC(=O)[C@H]2CCCN2C(=O)[C@H](CCC(N)=O)NC(=O)[C@H]([C@@H](C)O)NC(=O)[C@H](C(C)C)NC(=O)[C@H](CCCNC(=N)N)NC1=O` [compound 96], 0.48 µM.

Staying with this test, now noted: FP inhibition constant normalized to WT value.
With `CC[C@H](C)[C@@H]1NC(=O)[C@H](CO)NC(=O)[C@H](CCCCN)NC(=O)[C@@H]2CCCN2C(=O)[C@H]([C@@H](C)O)NC(=O)CNC(=O)[C@H](CC(=O)O)NC(=O)CNC(=O)[C@H]([C@@H](C)O)NC(=O)[C@H](Cc2ccccc2)NC(=O)[C@H]([C@@H](C)O)NC(=O)[C@H]([C@@H](C)O)NC(=O)[C@H](CCC(=O)O)NC(=O)[C@H](CC(C)C)NC(=O)[C@H](Cc2c[nH]cn2)NC(=O)[C@H]([C@@H](C)O)NC(=O)[C@H](CCC(N)=O)NC(=O)CNC(=O)[C@H]2CCCN2C(=O)[C@H](CCC(N)=O)NC(=O)[C@H]([C@@H](C)O)NC(=O)[C@H](C(C)C)NC(=O)[C@H](CCCNC(=N)N)NC1=O` [compound 50] (cyclo(THLETTFTGDGTPKSIRVTQ[dP]GQ)), the “Relative Ki (Ki mut/Ki WT)” value is given as 4.79.
On to `CC[C@H](C)[C@@H]1NC(=O)[C@H]([C@@H](C)O)NC(=O)[C@H](CCCCN)NC(=O)[C@@H]2CCCN2C(=O)[C@H]([C@@H](C)O)NC(=O)CNC(=O)[C@H](CC(=O)O)NC(=O)CNC(=O)[C@H]([C@@H](C)O)NC(=O)[C@H](Cc2ccccc2)NC(=O)[C@H]([C@@H](C)O)NC(=O)[C@H](CO)NC(=O)[C@H](CCC(=O)O)NC(=O)[C@H](CC(C)C)NC(=O)[C@H](Cc2c[nH]cn2)NC(=O)[C@H]([C@@H](C)O)NC(=O)[C@H](CCC(N)=O)NC(=O)CNC(=O)[C@H]2CCCN2C(=O)[C@H](CCC(N)=O)NC(=O)[C@H]([C@@H](C)O)NC(=O)[C@H](C(C)C)NC(=O)[C@H](CCCNC(=N)N)NC1=O` [compound 52] (cyclo(THLESTFTGDGTPKTIRVTQ[dP]GQ)), for which the “Relative Ki (Ki mut/Ki WT)” value is listed as 2.51.
As to `CC[C@H](C)[C@@H]1NC(=O)[C@H]([C@@H](C)O)NC(=O)[C@H](CCCCN)NC(=O)[C@@H]2CCCN2C(=O)[C@H]([C@@H](C)O)NC(=O)CNC(=O)[C@H](CC(=O)O)NC(=O)CNC(=O)[C@H]([C@@H](C)O)NC(=O)[C@H](Cc2ccccc2)NC(=O)[C@H](CCC(=O)O)NC(=O)[C@H]([C@@H](C)O)NC(=O)[C@H](CCC(=O)O)NC(=O)[C@H](CC(C)C)NC(=O)[C@H](Cc2c[nH]cn2)NC(=O)[C@H]([C@@H](C)O)NC(=O)[C@H](CCC(N)=O)NC(=O)CNC(=O)[C@H]2CCCN2C(=O)[C@H](CCC(N)=O)NC(=O)[C@H]([C@@H](C)O)NC(=O)[C@H](C(C)C)NC(=O)[C@H](CCCNC(=N)N)NC1=O` [compound 53] (cyclo(THLETEFTGDGTPKTIRVTQ[dP]GQ)), the “Relative Ki (Ki mut/Ki WT)” value came out at 0.34.
Take `CC[C@H](C)[C@@H]1NC(=O)[C@H]([C@@H](C)O)NC(=O)[C@H](CCCCN)NC(=O)[C@@H]2CCCN2C(=O)[C@H]([C@@H](C)O)NC(=O)CNC(=O)[C@H](CC(=O)O)NC(=O)CNC(=O)[C@H]([C@@H](C)O)NC(=O)[C@H](Cc2ccccc2)NC(=O)[C@H]([C@@H](C)O)NC(=O)[C@H]([C@@H](C)O)NC(=O)[C@H](CCC(=O)O)NC(=O)[C@H](C)NC(=O)[C@H](Cc2c[nH]cn2)NC(=O)[C@H]([C@@H](C)O)NC(=O)[C@H](CCC(N)=O)NC(=O)CNC(=O)[C@H]2CCCN2C(=O)[C@H](CCC(N)=O)NC(=O)[C@H]([C@@H](C)O)NC(=O)[C@H](C(C)C)NC(=O)[C@H](CCCNC(=N)N)NC1=O` [compound 57] (cyclo(THAETTFTGDGTPKTIRVTQ[dP]GQ)): the “Relative Ki (Ki mut/Ki WT)” value amounted to 2.36.
